From patent US20250019369A1, “N-(4-aminocyclohexyl)pyrimidine-4-carboxamide derivatives as CD38 inhibitors” (Cerevance, Inc., priority 2021, published 2025)
Counter-ions that a name gives are not always drawn. Like-named read-outs stand apart in the source and are kept apart here.

Experiments:
Recombinant mouse CD38 = Recombinant mouse CD38 (Mus musculus (Mouse), UniProt P56528); assay: Mouse CD38 hydrolase assay (fluorescence, ε-NAD substrate); assay type: biochemical; settings: recombinant mouse CD38 0.4 nM, 12 μM ε-NAD, 30 min preincubation at 25° C., pH 7.4
Recombinant mouse CD38, sequence (P56528 whole entry): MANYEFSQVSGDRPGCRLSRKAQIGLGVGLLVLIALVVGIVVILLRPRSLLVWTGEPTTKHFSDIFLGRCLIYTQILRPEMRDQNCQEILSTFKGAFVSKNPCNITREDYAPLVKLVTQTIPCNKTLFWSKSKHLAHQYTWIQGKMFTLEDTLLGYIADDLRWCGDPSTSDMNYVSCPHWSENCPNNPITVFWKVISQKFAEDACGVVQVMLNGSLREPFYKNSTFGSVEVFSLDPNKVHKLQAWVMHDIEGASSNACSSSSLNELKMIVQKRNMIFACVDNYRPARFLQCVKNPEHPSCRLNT
Description: (§1) The ability of test compounds to inhibit mouse CD38 hydrolase activity was measured in a fluorescence-based assay using non-physiological NAD^+ substrate analogue 1,N^6-etheno NAD^+ (ε-NAD). Recombinant mouse CD38 (0.4 nM) was preincubated with test compounds in 384-well black microplates for 30 min at 25° C. in PBS (—Ca^2+/Mg^2+) containing 0.005% BSA (pH 7.4). CD38 hydrolase activity was initiated by addition of 12 μM ε-NAD, which yields the fluorescent product 1,N^6-etheno ADP-ribose. Formation of fluorescent product was followed using ClarioStar Plus (BMG) microplate reader by reading fluorescence (excitation λ=300 nm; emission λ=410 nm) at two time points, one immediately after substrate addition (t=0) and one at 6 min (t=6).
(§2) Data was analysed by subtracting the values detected at t=0 from t=6 to correct for variation in baseline fluorescence, and fluorescence values were converted to percent inhibition using the average of high signal (CD38 and ε-NAD) and low signal (CD38 and ε-NAD in the presence of a tool CD38 inhibitor) control wells. IC50 values were determined from a 10-point, half log concentration response curve with a four-parameter logistic equation.

Recombinant human CD38 = Recombinant human CD38 (Homo sapiens (Human), UniProt P28907); assay: Human CD38 hydrolase assay (fluorescence, ε-NAD substrate); assay type: biochemical; settings: recombinant human CD38 0.8 nM, 4 μM ε-NAD, 30 min preincubation at 25° C., pH 7.4
Recombinant human CD38, sequence (P28907 whole entry): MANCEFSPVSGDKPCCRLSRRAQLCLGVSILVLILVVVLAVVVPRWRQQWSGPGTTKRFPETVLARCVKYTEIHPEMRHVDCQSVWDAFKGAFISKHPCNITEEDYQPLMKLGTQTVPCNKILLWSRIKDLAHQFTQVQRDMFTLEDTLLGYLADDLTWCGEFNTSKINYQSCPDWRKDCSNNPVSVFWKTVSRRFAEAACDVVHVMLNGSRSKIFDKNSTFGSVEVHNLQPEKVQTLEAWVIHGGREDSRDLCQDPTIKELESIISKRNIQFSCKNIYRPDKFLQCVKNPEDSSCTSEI
Description: as §1, with “inhibit human” for “inhibit mouse”, “Recombinant human” for “Recombinant mouse”, “CD38 (0.8” for “CD38 (0.4”, “of 4” for “of 12”, “at 10” for “at 6”, “min (t=10).” for “min (t=6).”
as §2, with “t=10” for “t=6”, “fluorescence. Fluorescence” for “fluorescence, and fluorescence”

[1] = PK brain permeability in C57BL/6 mice after single oral gavage; assay type: in vivo; settings: 2 hours post dose; for concentration at 2 h: po, 10 mg/kg
Description: The distribution of compounds into the brain in vivo was determined in C57BL/6 mice following single oral (po) gavage administration.
Test compounds were formulated at 1 mg/mL in 0.5% HPMC E4 M, 0.2% Tween 80 in water to achieve solutions or homogenous suspensions suitable for po administration.
Formulations were administered to 3 male C57BL/6 mice at a volume of 10 mL/kg resulting in a dose level of 10 mg/kg. Blood samples were collected at 1 and 2 hours post dose into tubes containing K2EDTA as anticoagulant, processed to plasma and stored at −60° C. or lower until LC-MS/MS analysis. Brains were harvested 2 hours post dose, rinsed with saline, dried, weighed and homogenised under ice cold conditions. Brain homogenates were stored at −60° C. or lower until LC-MS/MS analysis.
Dose formulation concentrations were verified using a LC-UV or LC-MS/MS method. Test compound concentrations in plasma and brain homogenate were quantitatively determined using LC-MS/MS methods developed in individual matrices against calibration curves with QC samples included and acceptance criteria as per CRO SOPs. Concentrations in brain homogenate were corrected for the dilution factor used to prepare the homogenate to give concentrations in whole brain tissue.
Plasma and brain concentration versus time data were reported and plotted in excel. The brain to plasma ratio at 2 hours post dose was calculated for each animal using the following equation:
Brain:plasma=brain concentration (ng/g) at 2 h/plasma concentration (ng/mL) at 2 h
As only unbound test compound is available to exert an effect on the target, unbound plasma (Cp,u) and unbound brain (Cb,u) concentrations were calculated by correcting the total concentrations for the unbound fraction in plasma (fu,p) or brain (fu,b) determined from in vitro plasma protein or brain tissue binding assays using the following equations: […]
The unbound partitioning coefficient (Kpu,u) was then calculated based on the ratio of Cb,u to Cp,u using the following equation: […]
In these studies, mice were orally administrated a 10 mg/kg dose and sacrificed 2 hours post dose and tissue samples (brain homogenate and plasma) were analyzed subsequently as described above.

Row | IC50 (Recombinant mouse CD38) [nM] | IC50 (Recombinant human CD38) [nM] | Compound | other results
1 | ≤ 40 | – | Cc1cc(C(=O)N[C@H]2CC[C@H](NCC(F)(F)F)CC2)nc(-c2cncn2C)n1 [Example 4, 6-methyl-2-(1-methyl-1H-imidazol-5-yl)-N-((1r,4r)-4-((2,2,2-trifluoroethyl)amino)cyclohexyl)pyrimidine-4-carboxamide] | –
2 | ≤ 40 | ≤ 1000 | Cc1cc(C(=O)N[C@H]2CC[C@H](NCC(F)(F)F)CC2)nc(-c2cncs2)n1 [Example 5, 6-methyl-2-(thiazol-5-yl)-N-((1r,4r)-4-((2,2,2-trifluoroethyl)amino)cyclohexyl)pyrimidine-4-carboxamide] | –
3 | ≤ 40 | ≤ 100 | CCc1cc(C(=O)N[C@H]2CC[C@H](NCC(F)(F)F)CC2)nc(-n2ccnc2)n1 [Example 6, 6-ethyl-2-(1H-imidazol-1-yl)-N-((1r,4r)-4-((2,2,2-trifluoroethyl)amino)cyclohexyl)pyrimidine-4-carboxamide] | –
4 | – | ≤ 100 | Cc1cc(C(=O)N[C@H]2CC[C@H](N(C)CC(F)(F)F)CC2)nc(-n2ccnc2)n1 [Example 7, 2-(1H-imidazol-1-yl)-6-methyl-N-((1r,4r)-4-(methyl(2,2,2-trifluoroethyl)amino)cyclohexyl)pyrimidine-4-carboxamide] | –
5 | – | ≤ 1000 | Cc1cc(C(=O)N[C@H]2CC[C@H](NCC(F)F)CC2)nc(-c2cncs2)n1 [Example 8, N-((1r,4r)-4-((2,2-difluoroethyl)amino)cyclohexyl)-6-methyl-2-(thiazol-5-yl)pyrimidine-4-carboxamide] | –
6 | ≤ 40 | ≤ 1000 | Cc1cc(C(=O)N[C@H]2CC[C@H](NCCF)CC2)nc(-n2ccnc2)n1 [Example 9, N-((1r,4r)-4-((2-fluoroethyl)amino)cyclohexyl)-2-(1H-imidazol-1-yl)-6-methyl-pyrimidine-4-carboxamide formate] | –
7 | – | ≤ 10000 | Cc1cc(C(=O)N[C@H]2CC[C@@H](N3CCC(F)(F)C3)CC2)nc(-n2ccnc2)n1 [Example 11, N-((1s,4s)-4-(3,3-difluoropyrrolidin-1-yl)cyclohexyl)-2-(1H-imidazol-1-yl)-6-methyl-pyrimidine-4-carboxamide] | –
8 | ≤ 40 | ≤ 100 | Cc1cc(C(=O)N[C@H]2CC[C@H](N3CC[C@H](F)C3)CC2)nc(-n2ccnc2)n1 [Example 12, N-((1s,4r)-4-((S)-3-fluoropyrrolidin-1-yl)cyclohexyl)-2-(1H-imidazol-1-yl)-6-methyl-pyrimidine-4-carboxamide] | –
9 | ≤ 40 | ≤ 100 | Cc1cc(C(=O)N[C@H]2CC[C@H](N3CC[C@@H](F)C3)CC2)nc(-n2ccnc2)n1 [Example 13, N-((1r,4r)-4-((R)-3-fluoropyrrolidin-1-yl)cyclohexyl)-2-(1H-imidazol-1-yl)-6-methyl-pyrimidine-4-carboxamide] | –
10 | ≤ 1000 | – | Cc1cc(C(=O)N[C@H]2CC[C@H](NCC(F)(F)F)CC2)nc(-c2cn[nH]c2)n1 [Example 14, 6-methyl-2-(1H-pyrazol-4-yl)-N-((1r,4r)-4-((2,2,2-trifluoroethyl)amino)cyclohexyl)pyrimidine-4-carboxamide] | –
11 | ≤ 1000 | ≤ 10000 | Cc1cc(C(=O)N[C@H]2CC[C@H](NCC(F)F)CC2)nc(-c2cn[nH]c2)n1 [Example 15, N-((1r,4r)-4-((2,2-difluoroethyl)amino)cyclohexyl)-6-methyl-2-(1H-pyrazol-4-yl)pyrimidine-4-carboxamide] | –
12 | ≤ 40 | ≤ 1000 | O=C(N[C@H]1CC[C@H](NCC(F)F)CC1)c1cc(C2CC2)cc(-n2ccnc2)n1 [Example 16, 4-cyclopropyl-N-((1r,4r)-4-((2,2-difluoroethyl)amino)cyclohexyl)-6-(1H-imidazol-1-yl)picolinamide] | –
13 | ≤ 40 | ≤ 100 | CCN[C@H]1CC[C@H](NC(=O)c2cc(C)nc(-n3ccnc3)n2)CC1 [Example 19, N-((1r,4r)-4-(ethylamino)cyclohexyl)-2-(1H-imidazol-1-yl)-6-methyl-pyrimidine-4-carboxamide Formate] | –
14 | ≤ 40 | ≤ 100 | O=C(N[C@H]1CC[C@H](NCC(F)(F)F)CC1)c1cc(C2CC2)cc(-n2ccnc2)n1 [Example 20, 4-cyclopropyl-6-(1H-imidazol-1-yl)-N-((1r,4r)-4-((2,2,2-trifluoroethyl)amino)cyclohexyl)picolinamide] | –
15 | ≤ 40 | ≤ 40 | Cc1cc(C(=O)N[C@H]2CC[C@H](N[C@@H](C)C(F)(F)F)CC2)nc(-n2ccnc2)n1 [Example 22, 2-(1H-imidazol-1-yl)-6-methyl-N-((1S,4r)-4-(((S)-1,1,1-trifluoropropan-2-yl)amino)cyclohexyl)pyrimidine-4-carboxamide] | –
16 | ≤ 40 | ≤ 40 | Cc1cc(C(=O)N[C@H]2CC[C@H](N[C@H](C)C(F)(F)F)CC2)nc(-n2ccnc2)n1 [Example 23, 2-(1H-imidazol-1-yl)-6-methyl-N-((1R,4r)-4-(((R)-1,1,1-trifluoropropan-2-yl)amino)cyclohexyl)pyrimidine-4-carboxamide] | –
17 | ≤ 40 | ≤ 100 | Cc1cc(C(=O)N[C@H]2CC[C@H](NCC(F)(F)F)CC2)nc(-n2cncc2C)n1 [Example 24, 6-methyl-2-(5-methyl-1H-imidazol-1-yl)-N-((1r,4r)-4-((2,2,2-trifluoroethyl)amino)cyclohexyl)pyrimidine-4-carboxamide] | –
18 | ≤ 40 | ≤ 40 | Cc1cc(C(=O)N[C@H]2CC[C@H](CNCC(F)(F)F)CC2)nc(-n2ccnc2)n1 [Example 25, 2-(1H-imidazol-1-yl)-6-methyl-N-((1r,4r)-4-(((2,2,2-trifluoroethyl)amino)methyl)cyclohexyl)pyrimidine-4-carboxamide] | –
19 | ≤ 40 | ≤ 40 | Cc1cc(C(=O)N[C@H]2CC[C@H](C(=O)NCC(F)(F)F)CC2)nc(-n2ccnc2)n1 [Example 26, 2-(1H-imidazol-1-yl)-6-methyl-N-((1r,4r)-4-((2,2,2-trifluoroethyl)carbamoyl)cyclohexyl)pyrimidine-4-carboxamide] | –
20 | – | – | O=C(N[C@H]1CC[C@H](NCC(F)(F)F)CC1)c1nc(-n2ccnc2)nc2cc[nH]c12 [Example 29, 2-(1H-imidazol-1-yl)-N-((1r,4r)-4-((2,2,2-trifluoroethyl)amino)cyclohexyl)-5H-pyrrolo[3,2-d]pyrimidine-4-carboxamide, reference compound] | concentration at 2 h ([1]; male, C57BL/6, mouse, brain, read-out: total brain conc.): 1770 nM; concentration at 2 h ([1]; male, C57BL/6, mouse, brain, total corrected for unbound fraction in brain, read-out: free brain conc.): 224 nM; Kpu,u (unbound brain/plasma partition coefficient) at 2 h ([1]; male, C57BL/6, mouse, brain/plasma, oral 10 mg/kg, read-out: Kpu,u (unbound partitioning coefficient, Cb,u/Cp,u)): 0.18; concentration at 2 h ([1]; male, C57BL/6, mouse, plasma, read-out: total plasma conc.): 11100 nM; concentration at 2 h ([1]; male, C57BL/6, mouse, plasma, total corrected for unbound fraction in plasma, read-out: free plasma conc.): 1260 nM; brain exposure (in words) ([1]; oral 10 mg/kg, comment on Table 3, with lower Kpu,u values): much reduced brain exposure
